Experimental data as given in patent US20200061062A1, “INHIBITORS OF HUMAN PHOSPHATIDYLINOSITOL 3-KINASE DELTA” (ICOS Corporation, priority 2000, published 2020).

Assays:
human neutrophils [1] = test: Bactericidal capacity of neutrophils (Staphylococcus aureus killing); type: cell-based; details: FIG. 6; versus DMSO control
From the text: Given that the PI3Kδ inhibitor D-000 affects certain neutrophil functions detailed above, it was of interest to see whether the compound affects neutrophil-mediated bacterial killing. The effect of D-000 on neutrophil-mediated Staphylococcus aureus killing was studied according to the method described by Clark and Nauseef (pp. 7.23.4-7.23.6 in Vol. 2, Supp. 6, Curr Protocols Immunol (Eds., Colligan et al.) (1994)). Purified human neutrophils (5×10^6 cells/mL) (treated with either DMSO or a serial dilution of D-000 in DMSO) were mixed with autologous serum. Overnight-grown S. aureus cells were washed, resuspended in HBSS, and added to the serum-opsonized neutrophils at a 10:1 ratio. Neutrophils were allowed to internalize the bacteria by phagocytosis by incubation at 37° C. for 20 min. The noninternalized bacteria were killed by 10 units/mL lysostaphin at 37° C. for 5 min and the total mixture was rotated at 37° C. Samples were withdrawn at various times for up to 90 min and the neutrophils were lysed by dilution in water. Viable bacteria were counted by plating appropriate dilutions on trypticase-soy-agar plate and counting the S. aureus colonies after overnight growth.

RWLeu4 = test: Cancer cell proliferation, [3H]-thymidine incorporation, RWLeu4; type: cell-based; details: Homo sapiens, 120 h; RWLeu4 line; five days; read-out: EC50, inhibition of cell growth
Experimental: The effect of compounds of the invention on cancer cell proliferation was evaluated by testing one of the compounds against a panel of Chronic Myeloid Leukemia (CML) cell lines, including KU812, RWLeu4, K562, and MEG-01.
The inhibitory activity of the compound (D-000, dissolved in DMSO) was determined as follows. The tested compound was added in a series of concentrations (0.001 μM to 20 μM) to 96-well microtiter plates with cells (1000 to 5000 cells/well). Plates were incubated for five days at 37° C. during which the control cultures without test compound were able to undergo at least two cell-division cycles. Cell growth was measured by incorporation of [^3H]-thymidine for eighteen hours added at days three, four, and five. Cells were transferred to a filter, washed and the radioactivity counted using a Matrix 96 beta counter (Packard). The percentage of cell growth was measured as follows: […]

human neutrophils [2] = test: Superoxide production from neutrophils (cytochrome C reduction); type: cell-based
Experimental: Aliquots (8 mL) of heparinized blood from healthy volunteers were layered on 3 mL cushions of 7.3% FICOLL® (Sigma, St. Louis, Mo.) and 15.4% HYPAQUE® (Sigma) and centrifuged at 900 rpm for 30 min at room temperature in a table top centrifuge (Beckman). The neutrophil-rich band just above the FICOLL®-HYPAQUE® cushion was collected and washed with Hanks' balanced salt solution (HBSS) containing 0.1% gelatin. Residual erythrocytes were removed by hypotonic lysis with 0.2% NaCl. The neutrophil preparation was washed twice with HBSS containing 0.1% gelatin and used immediately.
Superoxide generation is one of the hallmarks of neutrophil activation. A variety of activators potentiate superoxide generation by neutrophils. The effect of the PI3Kδ inhibitor D-000 on superoxide generation by three different agonists: TNF1α, IgG, and fMLP, each representing separate classes of activator, was measured. Superoxide generated by the neutrophils was measured by monitoring the change in absorbance upon reduction of cytochrome C by modification of the method described by Green et al., (pp. 14.5.1-14.5.11 in Supp. 12, Curr Protocols Immunol (Eds., Colligan et al.) (1994)), as follows. Individual wells of a 96-well plate were coated overnight at 4° C. with 50 μL of 2 mg/mL solution of human fibrinogen or IgG. The wells were washed with PBS and the following reagents were added to each well: 50 μL of HBSS or superoxide dismutase (1 mg/mL), 50 μL of HBSS or TNF1α (50 ng/mL), 50 μL cytochrome C (2.7 mg/mL), and 100 μL of purified human neutrophil suspension ([…] cells/mL). The plate was centrifuged for 2 min at 200 rpm and absorbance at 550 nm was monitored for 2 hr. To measure the relative amounts of superoxide generated, values obtained from the superoxide dismutase-containing wells were subtracted from all, and normalized to the values obtained from the wells without any inhibitor.

basophils = test: Basophil histamine release assay; type: cell-based, human
Experimental: Assessment of the effect of a compound of the invention on basophil function was tested using a conventional histamine release assay, generally in accordance with the method described in Miura et al., J Immunol, 162:4198-206 (1999). Briefly, enriched basophils were preincubated with test compounds at several concentrations from 0.1 nM to 1,000 nM, for 10 min at 37° C. Then, polyclonal goat antihuman IgE (0.1 μg/mL) or fMLP was added, and allowed to incubate for an additional 30 min. Histamine released into the supernatant was measured using an automated fluorometric technique. Two compounds were tested, shown below.

SMILES	Effect on neutrophil-mediated killing of S. aureus (human neutrophils [1])	EC50 (RWLeu4) [nM]	IC50 (human neutrophils [2]; Homo sapiens, Neutrophil, TNF stimulus, FIG. 2, read-out: Concentration reducing TNF-induced superoxide generation to its half-maximal value) [nM]	Effect on superoxide generation induced by IgG (human neutrophils [2]; IgG stimulus, at 10 μM, FIG. 2)	Effect on fMLP-induced superoxide generation (human neutrophils [2]; fMLP stimulus, FIG. 3)	Efficacy in the inhibition of histamine release compared with D-026 (basophils; anti-IgE)	Effect on histamine release, basophils stimulated with fMLP (basophils; fMLP stimulus)
O=c1c2ccccc2nc(CSc2ncnc3[nH]cnc23)n1-c1ccccc1Cl [Compound D-000, 3-(2-chlorophenyl)-2-(9H-purin-6-ylsulfanylmethyl)-3H-quinazolin-4-one]	does not significantly affect	~2000	~3000	did not have any effect	inhibited	–	–
O=c1c2ccccc2nc(CSc2ncnc3[nH]ncc23)n1-c1ccccc1Cl [Compound D-999, 3-(2-Chlorophenyl)-2-(1H-pyrazolo[3,4-d]pyrimidin-4-ylsulfanylmethyl)-3H-quinazolin-4-one, reference compound]	–	–	–	–	–	less efficacious	Neither compound elicited any effect
